Source: ChEMBL document CHEMBL5058645, “Data for DCP probe JNJ-6204” (2022)
Active and inactive are the calls of the source. The rule behind the calls is not given here.

Experiments:
[1] = target: T1, Casein kinase I isoform epsilon (Homo sapiens, UniProt P49674); experiment: CK1epsilon(h) Kinase panel
[2] = target: Mitogen-activated protein kinase 11 (Homo sapiens, UniProt Q15759); experiment: SAPK2b(h) Kinase panel
[3] = target: Casein kinase I isoform alpha (Homo sapiens, UniProt P48729); experiment: CK1alpha(h) Kinase panel
[4] = target: Mitogen-activated protein kinase 14 (Homo sapiens, UniProt Q16539); experiment: SAPK2a(h) Kinase panel
[5] = target: T1, Casein kinase I isoform epsilon; experiment: ADP-Glo
[6] = target: Serine/threonine-protein kinase 38-like (Homo sapiens, UniProt Q9Y2H1); experiment: NDR2(h) Kinase panel
[7] = GPCRScan assay: inhibition of GABA/PBR; set-up: species or system Rattus norvegicus; radioligand conc. used [nm] 0.3 – 2.0, parental cells brain tissue
[8] = target: Serine/threonine-protein kinase DCLK2 (Homo sapiens, UniProt Q8N568); experiment: DCAMKL2(h) Kinase panel
[9] = target: 5'-AMP-activated protein kinase catalytic subunit alpha-2 (Homo sapiens, UniProt P54646); experiment: AMPKalpha2(h) Kinase panel
[10] = target: Macrophage colony-stimulating factor 1 receptor (Homo sapiens, UniProt P07333); experiment: Fms(h) Kinase panel
TGF-beta receptor type-1 = TGF-beta receptor type-1 (Homo sapiens, UniProt P36897); experiment: TGFBR1(h) Kinase panel
[11] = target: TRAF2 and NCK-interacting protein kinase (Homo sapiens, UniProt Q9UKE5); experiment: TNIK(h) Kinase panel
[12] = target: Sodium-dependent serotonin transporter (Homo sapiens) (UniProt P31645); conditions: Compound concentration 10.0 uM
[13] = target: Alpha-1B adrenergic receptor (Homo sapiens) (UniProt P35368); conditions: Compound concentration 10.0 uM
[14] = target: T2, Sodium-dependent dopamine transporter (Homo sapiens, UniProt Q01959); experiment: GPCRScan assay: inhibition of DAT; set-up: radioligand conc. used [nm] 3.6 – 16.0, parental cells stable HEK
[15] = target: 5-hydroxytryptamine receptor 2C (Homo sapiens) (UniProt P28335); conditions: Compound concentration 10.0 uM
[16] = target: 5-hydroxytryptamine receptor 2A (Homo sapiens) (UniProt P28223); conditions: Compound concentration 10.0 uM
[17] = target: Alpha-2B adrenergic receptor (Homo sapiens) (UniProt P18089); conditions: Compound concentration 10.0 uM
[18] = target: Alpha-2A adrenergic receptor (Homo sapiens) (UniProt P08913); conditions: Compound concentration 10.0 uM
[19] = target: Sodium-dependent noradrenaline transporter (Homo sapiens) (UniProt P23975); conditions: Compound concentration 10.0 uM
[20] = target: Beta-1 adrenergic receptor (Homo sapiens) (UniProt P08588); conditions: Compound concentration 10.0 uM
[21] = target: Muscarinic acetylcholine receptor M5 (Homo sapiens) (UniProt P08912); conditions: Compound concentration 10.0 uM
[22] = target: Muscarinic acetylcholine receptor M3 (Homo sapiens) (UniProt P20309); conditions: Compound concentration 10.0 uM
[23] = target: Mu-type opioid receptor (Homo sapiens) (UniProt P35372); conditions: Compound concentration 10.0 uM
D(3) dopamine receptor [24] = target: T3, D(3) dopamine receptor (Homo sapiens, UniProt P35462); conditions: Compound concentration 10.0 uM
[25] = target: Muscarinic acetylcholine receptor M2 (Homo sapiens) (UniProt P08172); conditions: Compound concentration 10.0 uM
[26] = target: Histamine H4 receptor (Homo sapiens) (UniProt Q9H3N8); conditions: Compound concentration 10.0 uM
[27] = target: Histamine H3 receptor (Homo sapiens) (UniProt Q9Y5N1); conditions: Compound concentration 10.0 uM
[28] = target: T2, Sodium-dependent dopamine transporter; conditions: Compound concentration 10.0 uM
[29] = target: Histamine H2 receptor (Homo sapiens) (UniProt P25021); conditions: Compound concentration 10.0 uM
[30] = target: Histamine H1 receptor (Homo sapiens) (UniProt P35367); conditions: Compound concentration 10.0 uM
[31] = target: D(1A) dopamine receptor (Homo sapiens) (UniProt P21728); conditions: Compound concentration 10.0 uM
[32] = target: D(4) dopamine receptor (Homo sapiens) (UniProt P21917); conditions: Compound concentration 10.0 uM
[33] = target: Sigma intracellular receptor 2 (Homo sapiens) (UniProt Q5BJF2); conditions: Compound concentration 10.0 uM
[34] = target: Muscarinic acetylcholine receptor M4 (Homo sapiens) (UniProt P08173); conditions: Compound concentration 10.0 uM
[35] = target: 5-hydroxytryptamine receptor 3A (Homo sapiens) (UniProt P46098); conditions: Compound concentration 10.0 uM
[36] = target: Casein kinase I isoform delta (Homo sapiens, UniProt P48730); experiment: BRET whole cell binding assay
[37] = target: Kappa-type opioid receptor (Homo sapiens) (UniProt P41145); conditions: Compound concentration 10.0 uM
[38] = target: 5-hydroxytryptamine receptor 1E (Homo sapiens) (UniProt P28566); conditions: Compound concentration 10.0 uM
[39] = target: 5-hydroxytryptamine receptor 5A (Homo sapiens) (UniProt P47898); conditions: Compound concentration 10.0 uM
[40] = target: Alpha-1D adrenergic receptor (Homo sapiens) (UniProt P25100); conditions: Compound concentration 10.0 uM
[41] = target: Sigma non-opioid intracellular receptor 1 (Homo sapiens) (UniProt Q99720); conditions: Compound concentration 10.0 uM
[42] = target: 5-hydroxytryptamine receptor 2B (Homo sapiens) (UniProt P41595); conditions: Compound concentration 10.0 uM
[43] = target: 5-hydroxytryptamine receptor 7 (Homo sapiens) (UniProt P34969); conditions: Compound concentration 10.0 uM
[44] = target: 5-hydroxytryptamine receptor 1D (Homo sapiens) (UniProt P28221); conditions: Compound concentration 10.0 uM
[45] = target: Delta-type opioid receptor (Homo sapiens) (UniProt P41143); conditions: Compound concentration 10.0 uM
[46] = target: D(2) dopamine receptor (Homo sapiens) (UniProt P14416); conditions: Compound concentration 10.0 uM
D(3) dopamine receptor [47] = target: T3, D(3) dopamine receptor; experiment: GPCRScan assay: inhibition of D3; set-up: radioligand conc. used [nm] 0.5 – 1.8, parental cells HEKT
[48] = target: 5-hydroxytryptamine receptor 1B (Homo sapiens) (UniProt P28222); conditions: Compound concentration 10.0 uM
[49] = target: Alpha-2C adrenergic receptor (Homo sapiens) (UniProt P18825); conditions: Compound concentration 10.0 uM
[50] = target: D(1B) dopamine receptor (Homo sapiens) (UniProt P21918); conditions: Compound concentration 10.0 uM
[51] = target: 5-hydroxytryptamine receptor 1A (Homo sapiens, UniProt P08908); experiment: GPCRScan assay: inhibition of 5-HT1A; set-up: radioligand conc. used [nm] 0.5 – 1.0, parental cells stable CHO
[52] = target: GABA-A receptor; anion channel (Rattus norvegicus) (UniProt O09028+P15431+P18506+P18508+P19969+P20236+P23574+P23576+P28471+P28473+P30191+P62813+P63079+P63138+Q91ZM7+Q9ES14); conditions: Compound concentration 10.0 uM
[53] = target: Beta-3 adrenergic receptor (Homo sapiens) (UniProt P13945); conditions: Compound concentration 10.0 uM
[54] = target: Muscarinic acetylcholine receptor M1 (Homo sapiens) (UniProt P11229); conditions: Compound concentration 10.0 uM

T2 sequence (Q01959 whole entry): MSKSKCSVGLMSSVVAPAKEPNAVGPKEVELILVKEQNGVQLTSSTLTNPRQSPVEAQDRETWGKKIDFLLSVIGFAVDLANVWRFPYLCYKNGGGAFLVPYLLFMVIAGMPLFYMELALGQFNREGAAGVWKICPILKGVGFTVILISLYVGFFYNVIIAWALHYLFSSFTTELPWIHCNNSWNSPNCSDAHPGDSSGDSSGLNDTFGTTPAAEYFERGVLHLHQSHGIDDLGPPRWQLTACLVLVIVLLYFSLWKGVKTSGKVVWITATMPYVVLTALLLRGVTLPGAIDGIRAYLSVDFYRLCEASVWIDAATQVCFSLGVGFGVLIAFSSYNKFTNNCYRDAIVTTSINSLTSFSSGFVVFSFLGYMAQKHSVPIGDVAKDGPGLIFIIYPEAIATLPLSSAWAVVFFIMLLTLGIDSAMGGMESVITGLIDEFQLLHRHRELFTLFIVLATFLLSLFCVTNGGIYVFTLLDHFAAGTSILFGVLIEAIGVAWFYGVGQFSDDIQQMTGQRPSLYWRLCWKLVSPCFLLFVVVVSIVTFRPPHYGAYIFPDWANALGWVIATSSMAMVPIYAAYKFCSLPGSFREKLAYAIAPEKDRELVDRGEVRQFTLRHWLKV
T3 sequence (P35462 whole entry): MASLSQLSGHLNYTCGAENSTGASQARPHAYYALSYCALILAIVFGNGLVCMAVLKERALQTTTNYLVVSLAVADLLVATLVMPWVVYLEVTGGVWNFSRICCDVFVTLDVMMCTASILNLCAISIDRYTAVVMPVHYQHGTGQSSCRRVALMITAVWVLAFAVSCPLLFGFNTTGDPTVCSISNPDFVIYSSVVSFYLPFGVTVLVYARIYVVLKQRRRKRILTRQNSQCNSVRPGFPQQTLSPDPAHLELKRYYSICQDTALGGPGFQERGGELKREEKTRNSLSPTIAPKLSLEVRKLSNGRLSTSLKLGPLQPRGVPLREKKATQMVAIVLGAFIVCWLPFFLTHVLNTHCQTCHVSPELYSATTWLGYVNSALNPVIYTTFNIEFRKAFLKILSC
T1 sequence (P49674 whole entry, canonical isoform): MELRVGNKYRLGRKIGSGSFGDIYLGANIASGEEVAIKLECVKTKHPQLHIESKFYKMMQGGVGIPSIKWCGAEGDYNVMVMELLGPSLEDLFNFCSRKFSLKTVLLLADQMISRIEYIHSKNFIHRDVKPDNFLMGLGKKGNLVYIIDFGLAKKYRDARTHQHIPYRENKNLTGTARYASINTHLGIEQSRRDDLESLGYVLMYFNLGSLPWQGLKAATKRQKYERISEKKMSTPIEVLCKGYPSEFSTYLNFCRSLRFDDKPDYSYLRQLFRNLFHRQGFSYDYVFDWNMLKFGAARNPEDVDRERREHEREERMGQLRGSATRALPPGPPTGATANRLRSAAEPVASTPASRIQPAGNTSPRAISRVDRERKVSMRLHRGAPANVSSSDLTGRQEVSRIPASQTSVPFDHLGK
Histamine H4 receptor (Homo sapiens), sequence (Q9H3N8 whole entry): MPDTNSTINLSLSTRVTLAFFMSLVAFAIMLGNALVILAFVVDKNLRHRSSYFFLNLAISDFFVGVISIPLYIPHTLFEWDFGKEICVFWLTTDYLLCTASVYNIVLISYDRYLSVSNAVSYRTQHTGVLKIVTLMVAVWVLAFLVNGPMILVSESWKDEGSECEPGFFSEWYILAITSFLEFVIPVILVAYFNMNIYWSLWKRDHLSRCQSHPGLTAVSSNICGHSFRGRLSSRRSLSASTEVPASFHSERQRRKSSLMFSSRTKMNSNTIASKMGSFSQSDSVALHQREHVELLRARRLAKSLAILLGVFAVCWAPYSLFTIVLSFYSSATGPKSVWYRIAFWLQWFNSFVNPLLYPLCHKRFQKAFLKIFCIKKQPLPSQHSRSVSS
Casein kinase I isoform delta, sequence (P48730 whole entry, canonical isoform): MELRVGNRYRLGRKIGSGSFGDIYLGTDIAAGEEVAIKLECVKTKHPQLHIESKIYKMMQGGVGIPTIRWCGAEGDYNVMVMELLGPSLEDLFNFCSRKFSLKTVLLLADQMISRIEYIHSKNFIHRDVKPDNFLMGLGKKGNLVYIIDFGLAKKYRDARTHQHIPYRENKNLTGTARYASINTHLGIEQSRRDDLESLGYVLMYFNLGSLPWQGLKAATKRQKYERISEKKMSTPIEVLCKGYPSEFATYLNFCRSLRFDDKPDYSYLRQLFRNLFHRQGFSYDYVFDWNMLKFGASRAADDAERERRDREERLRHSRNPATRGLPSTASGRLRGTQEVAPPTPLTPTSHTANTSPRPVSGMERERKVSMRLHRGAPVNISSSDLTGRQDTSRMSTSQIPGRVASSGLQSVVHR
Serine/threonine-protein kinase 38-like, sequence (Q9Y2H1 whole entry): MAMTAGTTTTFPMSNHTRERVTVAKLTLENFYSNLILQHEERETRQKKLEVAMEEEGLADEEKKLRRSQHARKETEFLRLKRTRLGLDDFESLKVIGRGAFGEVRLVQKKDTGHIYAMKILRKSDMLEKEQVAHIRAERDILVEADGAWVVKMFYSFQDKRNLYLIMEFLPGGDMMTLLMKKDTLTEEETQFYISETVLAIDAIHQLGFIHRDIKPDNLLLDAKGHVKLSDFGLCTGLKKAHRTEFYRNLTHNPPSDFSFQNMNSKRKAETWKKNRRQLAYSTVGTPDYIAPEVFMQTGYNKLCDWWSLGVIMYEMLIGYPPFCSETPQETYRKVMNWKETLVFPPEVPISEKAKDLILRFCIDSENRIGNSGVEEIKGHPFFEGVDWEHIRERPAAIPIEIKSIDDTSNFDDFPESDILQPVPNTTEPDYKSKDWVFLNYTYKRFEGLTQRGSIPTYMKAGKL
Serine/threonine-protein kinase DCLK2, sequence (Q8N568 whole entry): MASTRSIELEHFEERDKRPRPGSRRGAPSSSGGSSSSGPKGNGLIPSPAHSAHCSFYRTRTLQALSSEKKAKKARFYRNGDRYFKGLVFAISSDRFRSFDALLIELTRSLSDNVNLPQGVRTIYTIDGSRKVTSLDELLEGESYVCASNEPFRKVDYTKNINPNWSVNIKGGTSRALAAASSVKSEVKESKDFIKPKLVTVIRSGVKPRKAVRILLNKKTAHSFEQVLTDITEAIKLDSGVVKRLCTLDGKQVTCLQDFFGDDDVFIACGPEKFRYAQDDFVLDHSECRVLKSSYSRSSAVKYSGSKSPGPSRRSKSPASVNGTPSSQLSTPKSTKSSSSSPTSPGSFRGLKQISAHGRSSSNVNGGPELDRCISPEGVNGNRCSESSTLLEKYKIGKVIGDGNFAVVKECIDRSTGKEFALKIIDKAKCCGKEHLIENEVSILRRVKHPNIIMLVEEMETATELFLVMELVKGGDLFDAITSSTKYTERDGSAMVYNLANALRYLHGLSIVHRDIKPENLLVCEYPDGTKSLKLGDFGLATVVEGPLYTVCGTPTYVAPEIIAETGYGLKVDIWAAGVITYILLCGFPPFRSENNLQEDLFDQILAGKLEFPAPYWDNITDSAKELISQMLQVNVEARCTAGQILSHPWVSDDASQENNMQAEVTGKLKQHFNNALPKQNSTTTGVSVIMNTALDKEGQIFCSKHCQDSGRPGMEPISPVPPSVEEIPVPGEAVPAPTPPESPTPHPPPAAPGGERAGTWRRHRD
Casein kinase I isoform alpha, sequence (P48729 whole entry, canonical isoform): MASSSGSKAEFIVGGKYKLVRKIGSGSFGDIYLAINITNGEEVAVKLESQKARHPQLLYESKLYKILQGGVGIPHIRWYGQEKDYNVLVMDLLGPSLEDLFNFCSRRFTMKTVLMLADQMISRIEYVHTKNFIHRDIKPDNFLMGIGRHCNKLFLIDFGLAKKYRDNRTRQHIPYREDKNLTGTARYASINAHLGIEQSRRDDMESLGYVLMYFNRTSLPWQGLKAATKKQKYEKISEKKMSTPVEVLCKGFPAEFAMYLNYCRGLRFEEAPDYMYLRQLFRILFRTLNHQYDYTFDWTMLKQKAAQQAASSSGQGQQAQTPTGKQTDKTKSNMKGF
D(2) dopamine receptor (Homo sapiens), sequence (P14416 whole entry): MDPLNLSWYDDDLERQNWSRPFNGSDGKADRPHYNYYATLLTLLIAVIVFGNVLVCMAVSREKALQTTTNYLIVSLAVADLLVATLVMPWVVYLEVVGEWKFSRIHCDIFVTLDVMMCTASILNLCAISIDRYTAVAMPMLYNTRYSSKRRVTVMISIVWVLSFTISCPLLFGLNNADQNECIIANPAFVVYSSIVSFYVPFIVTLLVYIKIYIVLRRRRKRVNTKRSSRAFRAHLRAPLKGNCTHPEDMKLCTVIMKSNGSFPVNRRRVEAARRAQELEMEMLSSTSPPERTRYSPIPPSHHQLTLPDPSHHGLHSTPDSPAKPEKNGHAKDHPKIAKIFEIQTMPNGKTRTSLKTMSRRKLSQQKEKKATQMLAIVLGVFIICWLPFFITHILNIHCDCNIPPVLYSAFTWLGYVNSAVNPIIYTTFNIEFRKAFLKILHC
5-hydroxytryptamine receptor 1B (Homo sapiens), sequence (P28222 whole entry): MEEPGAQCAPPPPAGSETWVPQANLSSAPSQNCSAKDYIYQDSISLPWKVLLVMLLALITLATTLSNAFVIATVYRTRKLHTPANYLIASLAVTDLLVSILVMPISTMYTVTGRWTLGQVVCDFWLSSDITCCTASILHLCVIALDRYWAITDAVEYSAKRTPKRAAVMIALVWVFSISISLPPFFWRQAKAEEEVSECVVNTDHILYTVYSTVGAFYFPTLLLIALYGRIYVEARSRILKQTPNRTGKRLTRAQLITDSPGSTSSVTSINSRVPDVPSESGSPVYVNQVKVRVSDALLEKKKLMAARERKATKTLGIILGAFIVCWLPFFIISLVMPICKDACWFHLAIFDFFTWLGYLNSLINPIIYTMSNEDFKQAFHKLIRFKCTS
Sigma intracellular receptor 2 (Homo sapiens), sequence (Q5BJF2 whole entry): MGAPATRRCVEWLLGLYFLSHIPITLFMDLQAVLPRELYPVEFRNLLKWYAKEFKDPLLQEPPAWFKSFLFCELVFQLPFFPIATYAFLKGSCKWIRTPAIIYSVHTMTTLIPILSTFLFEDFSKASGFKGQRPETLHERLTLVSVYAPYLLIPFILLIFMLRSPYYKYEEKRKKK

Q: Which results are given for `[2H]C([2H])([2H])C1(C([2H])([2H])[2H])Cn2nc(-c3ccc(F)cn3)c(-c3ccnc4[nH]ncc34)c2CO1`?
A: IC50 [1]: 0.137 µM; IC50 [2]: > 10 µM; IC50 [3]: 0.419 µM; IC50 [4]: > 10 µM; IC50 [5]: 0.137 µM (active); IC50 [6]: > 10 µM; Ki [7]: 4.53 µM; pKi [7]: 5.34; IC50 [8]: > 10 µM; IC50 [9]: > 10 µM; IC50 [10]: > 10 µM; IC50 (TGF-beta receptor type-1): > 10 µM; IC50 [11]: 1.7 µM

Q: Which inhibition [12] does the source give for `Cn1cc2c(-c3c(-c4ccc(F)cn4)nn4c3COC(C)(C)C4)ccnc2n1` here?
A: The inhibition was -2.06%.

Q: And the inhibition [13]?
A: Its inhibition is 35.2%.

Q: What about the Ki ([14]; read-out: Ki) of the same compound?
A: Its Ki is 7.22 µM.

Q: What about the Ki ([14]; read-out: pKi (converted)) of the same compound?
A: Its Ki is 7.24 µM.

Q: And the inhibition [15]?
A: The inhibition was 2.17%.

Q: What about the inhibition [16] of the same compound?
A: Its inhibition is 0.96%.

Q: What about the inhibition [17] of the same compound?
A: Its inhibition is 9.43%.

Q: What about the inhibition [18] of the same compound?
A: Its inhibition is 19.6%.

Q: And the inhibition [19]?
A: Its inhibition is 3.24%.

Q: What about the inhibition [20] of the same compound?
A: Its inhibition is 14.9%.

Q: What about the inhibition [21] of the same compound?
A: The inhibition was 12.5%.

Q: What about the inhibition [22] of the same compound?
A: Its inhibition is 0.71%.

Q: What about the inhibition [23] of the same compound?
A: The inhibition was -0.34%.

Q: What about the inhibition (D(3) dopamine receptor [24]) of the same compound?
A: The inhibition was 71%.

Q: And the inhibition [25]?
A: Its inhibition is -5.08%.

Q: And the inhibition [26]?
A: The inhibition was 31.6%.

Q: And the inhibition [27]?
A: Its inhibition is -2.3%.

Q: What about the inhibition [28] of the same compound?
A: The inhibition was 72.5%.

Q: And the inhibition [29]?
A: Its inhibition is -7.88%.

Q: What about the inhibition [30] of the same compound?
A: Its inhibition is 12.5%.

Q: And the inhibition [31]?
A: Its inhibition is 5.63%.

Q: What about the inhibition [32] of the same compound?
A: The inhibition was 48.1%.

Q: And the inhibition [33]?
A: The inhibition was -2.71%.

Q: And the inhibition [34]?
A: Its inhibition is 0.72%.

Q: What about the inhibition [35] of the same compound?
A: Its inhibition is 1.67%.

Q: What about the IC50 [36] of the same compound?
A: Its IC50 is > 10 µM (not active).

Q: What about the inhibition [37] of the same compound?
A: Its inhibition is 5.15%.

Q: And the inhibition [38]?
A: The inhibition was 11%.

Q: And the inhibition [39]?
A: Its inhibition is 5.31%.

Q: And the inhibition [40]?
A: Its inhibition is 12.7%.

Q: What about the inhibition [41] of the same compound?
A: The inhibition was 13%.

Q: What about the inhibition [42] of the same compound?
A: Its inhibition is 9.41%.

Q: And the inhibition [43]?
A: Its inhibition is 2.11%.

Q: And the inhibition [44]?
A: The inhibition was 11.3%.

Q: And the inhibition [45]?
A: Its inhibition is -4.05%.

Q: What about the inhibition [46] of the same compound?
A: The inhibition was 16.9%.

Q: And the Ki (D(3) dopamine receptor [47])?
A: The Ki was 8.63 µM.

Q: What about the inhibition [48] of the same compound?
A: The inhibition was 3.69%.

Q: What about the inhibition [49] of the same compound?
A: Its inhibition is -5.28%.

Q: And the inhibition [50]?
A: Its inhibition is 3.57%.

Q: And the Ki [51]?
A: The Ki was 7.66 µM.

Q: And the inhibition [52]?
A: The inhibition was 18.2%.

Q: What about the inhibition [53] of the same compound?
A: Its inhibition is 12.3%.

Q: And the inhibition [54]?
A: The inhibition was 14.2%.
